{"source": "ChEMBL document CHEMBL1130033", "about": "“17 beta-(3-furyl)-5 beta-androstane-3 beta, 14 beta, 17 alpha-triol (PST 2238). A very potent antihypertensive agent with a novel mechanism of action” (J Med Chem, 1997)", "molecular_target": "Sodium/potassium-transporting ATPase", "assay": "Ability to displace [3H]ouabain from Na+/K+ ATPase in dog kidney.", "assay_type": "protein-complex assay, Canis lupus familiaris"}
{"compound": "C[C@]12CC[C@H](O)C[C@H]1CC[C@@H]1[C@@H]2CC[C@]2(C)[C@@](O)(c3ccoc3)CC[C@]12O", "note": "[ROSTAFUROXIN]", "values": [{"measurement": "IC50", "value": 1500, "unit": "nM"}]}
